Results taken from patent US20230027985A1, “SUBSTITUTED HYDANTOINAMIDES AS ADAMTS7 ANTAGONISTS” (Bayer Aktiengesellschaft, priority 2019, published 2023).

Tests used:
ADAMTS4 = biological target: T1, ADAMTS4 (Homo sapiens, UniProt O75173); assay: Selectivity assay for ADAMTS-7 modulators (FRET), ADAMTS4; format: biochemical; settings: 50 nM enzyme (R&D 4307-AD), 1 μM Dabcyl/Edans FRET substrate, 120 min at 32° C.
T1 construct: purchased R&D 4307-AD
T1 sequence (O75173 213-685 limits assumed): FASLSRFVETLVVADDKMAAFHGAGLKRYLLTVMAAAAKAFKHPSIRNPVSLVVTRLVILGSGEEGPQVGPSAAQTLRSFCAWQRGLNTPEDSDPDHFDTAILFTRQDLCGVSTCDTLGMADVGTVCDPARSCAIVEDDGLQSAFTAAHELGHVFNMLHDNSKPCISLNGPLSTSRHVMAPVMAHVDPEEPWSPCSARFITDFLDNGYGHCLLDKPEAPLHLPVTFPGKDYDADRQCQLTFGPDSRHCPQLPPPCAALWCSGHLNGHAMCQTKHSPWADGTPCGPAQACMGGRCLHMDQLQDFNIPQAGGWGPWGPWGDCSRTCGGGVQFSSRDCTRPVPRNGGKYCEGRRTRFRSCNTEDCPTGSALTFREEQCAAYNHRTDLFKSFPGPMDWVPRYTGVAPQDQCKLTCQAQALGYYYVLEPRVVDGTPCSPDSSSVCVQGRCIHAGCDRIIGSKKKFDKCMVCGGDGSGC
Experimental: The respective enzyme (see table 2 below) was diluted in reaction buffer (50 mM Tris, 2.5 μM ZnCl2, 0.05% BSA, 0.001% Brij, pH 7.5 for ADAM17; 50 mM Tris 7.5, 150 mM NaCl, 10 mM CaCl2, 0.05% Brij for all other enzymes) to the respective concentration and 25 μl were transferred into each well of a 384-well white microtiter plate (Greiner Bio One 781075). 1 μl test compound solution (dissolved in DMSO, at the corresponding concentration) or pure DMSO as a control was added per well. The enzymatic reaction was initiated by addition of 25 μl of the respective concentration of the respective FRET substrate (see table 2 below) in reaction buffer. The microtiter plate was incubated for 120 min at the temperature of 32° C. The increase of fluorescence intensity was measured in appropriate fluorescence plate reader (e.g. TECAN Ultra) using the respective wavelengths for excitation and emission. IC50 values were calculated from percentage of inhibition of enzyme activity as a function of test compound concentration.

[1] = biological target: T2, Purified recombinant ADAMTS-7 (rat prodomain/human catalytic domain, SEQ ID No. 01 or 02) (Homo sapiens, UniProt Q9UKP4); assay: Assay for ADAMTS-7 enzymatic activity (FRET substrate cleavage); format: biochemical; settings: FRET substrate SEQ ID No. 11, 120 min at 32° C.; read-out: ADAMTS7-IC50
T2 construct: rat ADAMTS-7 signal peptide + prodomain (rat 1-217, Q1EHB3) (N); 2xStrep tag (C); 6xHis tag (C); made in house; host or cells: Expi293 cells
T2 sequence (Q9UKP4 237-537): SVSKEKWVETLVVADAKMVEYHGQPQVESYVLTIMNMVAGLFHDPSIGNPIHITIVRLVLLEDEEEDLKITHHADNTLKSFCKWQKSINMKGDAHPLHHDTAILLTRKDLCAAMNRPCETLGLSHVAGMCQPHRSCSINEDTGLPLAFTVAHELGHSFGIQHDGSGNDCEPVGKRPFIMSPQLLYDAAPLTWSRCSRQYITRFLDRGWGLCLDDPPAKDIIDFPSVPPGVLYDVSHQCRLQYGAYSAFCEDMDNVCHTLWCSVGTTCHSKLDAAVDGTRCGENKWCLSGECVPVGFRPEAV
Experimental: Purified recombinant ADAMTS-7 (as of SEQ ID No. 01 or SEQ ID No. 02) was diluted in reaction buffer (20 mM HEPES pH 8.0, 150 mM NaCl, 5 mM CaCl2, 0.004% Brij, 10 μM ZnCl2) fora concentration of approximately 20 nM. 25 μl of the solution were transferred into each well of a 384-well white microtiter plate (Greiner Bio-One 781075) and 1 μl test compound solution (modulator/inhibitor dissolved in DMSO, at the corresponding concentration) or pure DMSO as a control were added per well. […] Amino acids […] are derived from Thrombospondin-1 sequence (275-289). An additional carboxyl glutamic acid was added after the QXL520 quencher to increase substrate solubility. The microtiter plate was incubated for 120 min at the temperature of 32° C. The increase of fluorescence intensity was measured in appropriate fluorescence plate reader (e.g. TECAN Ultra) using excitation wavelength of 485 nm and emission wavelength of 520 nm. IC50 values were calculated from percentage of inhibition of ADAMTS-7 activity as a function of test compound concentration.

Structure (SMILES)	IC50 (ADAMTS4) [µM]	IC50 [1] [µM]
O=C1NC(=O)C(CNC(=O)c2cnn(-c3ccccc3)n2)(CC2CC2)N1 (racemic) [Example 54, rac-N-[(4-(cyclopropylmethyl)-2,5-dioxoimidazolidin-4-yl)methyl}]-2-phenyl-2H-1,2,3-triazole-4-carboxamide]	25	0.67
CCCC1(CNC(=O)c2cnn(-c3ccccc3)n2)NC(=O)NC1=O (racemic) [Example 55, rac-N-[(2,5-dioxo-4-propylimidazolidin-4-yl)methyl]-2-phenyl-2H-1,2,3-triazole-4-carboxamide]	19	0.24
CC(C)(C)C1(CNC(=O)c2cnn(-c3ccccc3)c2)NC(=O)NC1=O (racemic) [Example 58, rac-N-[4-tert-butyl-2,5-dioxoimidazolidin-4-yl)methyl]-1-phenyl-1H-pyrazole-4-carboxamide]	5.6	0.55
O=C1NC(=O)C(CNC(=O)c2cnn(-c3ccccc3)n2)(C2CCOCC2)N1 (racemic) [Example 61, rac-N-[(4-(oxan-4-yl)-2,5-dioxoimidazolidin-4-yl)methyl]-2-phenyl-2H-1,2,3-triazole-4-carboxamide]	9.95	0.128
CC(C)C1(CNC(=O)c2cnn(-c3ccc(F)cc3)n2)NC(=O)NC1=O (racemic) [Example 62, rac-N-[(2,5-dioxo-4-(propan-2-yl)imidazolidin-4-yl)methyl]-2-(4-fluorophenyl)-2H-1,2,3-triazole-4-carboxamide]	16	0.042
CC(C)(C)C1(CNC(=O)c2cnn(-c3ccc(F)cc3)n2)NC(=O)NC1=O (racemic) [Example 63, rac-N-[(4-tert-butyl-2,5-dioxoimidazolidin-4-yl)methyl]-2-(4-fluorophenyl)-2H-1,2,3-triazole-4-carboxamide]	6	0.069
CCCC1(CNC(=O)c2cnn(-c3ccc(F)cc3)n2)NC(=O)NC1=O (racemic) [Example 65, rac-N-[(2,5-dioxo-4-propylimidazolidin-4-yl)methyl]-2-(4-fluorophenyl)-2H-1,2,3-triazole-4-carboxamide]	19	0.17
O=C1NC(=O)C(CNC(=O)c2cnn(-c3ccc(F)cc3)n2)(C2CCOCC2)N1 (racemic) [Example 67, rac-2-(4-fluorophenyl)-N-[4-(oxan-4-yl)-2,5-dioxoimidazolidin-4-yl)methyl]-2H-1,2,3-triazole-4-carboxamide]	9.3	0.26
CCCCC1(CNC(=O)c2cnn(-c3ccc(F)cc3)n2)NC(=O)NC1=O (racemic) [Example 68, rac-N-[(4-butyl-2,5-dioxoimidazolidin-4-yl)methyl]-2-(4-fluorophenyl)-2H-1,2,3-triazole-4-carboxamide]	8.3	0.12
O=C1NC(=O)C(CNC(=O)c2cnn(-c3ccc(F)cc3)n2)(C2CCC2)N1 (racemic) [Example 69, rac-N-[(4-cyclobutyl-2,5-dioxoimidazolidin-4-yl)methyl]-2-(4-fluorophenyl)-2H-1,2,3-triazole-4-carboxamide]	35	0.098
CC(C)C1(CNC(=O)c2cnn(-c3ccc(F)cc3F)n2)NC(=O)NC1=O (racemic) [Example 87, rac-2-(2,4-difluorophenyl)-N-[(4-isopropyl-2,5-dioxoimidazolidin-4-yl)methyl]-2H-1,2,3-triazole-4-carboxamide]	20	0.098
CC(C)C1(CNC(=O)c2cnn(-c3cc(F)c(F)c(F)c3)n2)NC(=O)NC1=O (racemic) [Example 99, rac-N-[(4-isopropyl-2,5-dioxoimidazolidin-4-yl)methyl]-2-(3,4,5-trifluorophenyl)-2H-1,2,3-triazole-4-carboxamide]	6	0.052
